This is an account of results in patent publication US9511074B2, “Methods of treating disorders associated with protein polymerization” (UNIVERSITY OF PITTSBURGH—OF THE COMMONWEALTH SYSTEM OF …, priority 2009, dated 2016).

The subject of experiment [1] is AT Saar in the HTO/Saar cell line. As to the kind of experiment: Levels of AT Saar variant in the HTO/Saar cell line. It counts as cell-based, human. Conditions: FIG. 3D. From the text: (§1) Cell Lines The human epidermal HeLa cell line with doxycycline-regulated expression of ATZ (HTO/Z) has been described previously (1). HTO/M and HTO/Saar are HeLa cell lines with doxycycline-regulated expression of wild type AT and the AT Saar variant, respectively (1). A murine embryonic fibroblast cell line (MEF) with targeted disruption of Atg5 (2) was engineered for stable expression of ATZ using the previously described pRc/RSV-ATZ expression plasmid (3). A wild type MEF cell line was also engineered for stable expression of ATZ in the same way to serve as control. For experiments with CBZ, the inducible cell lines were cultured in the absence of doxycycline for at least 4 weeks for maximal expression of AT. The cells were then subcultured into separate monolayers in fresh complete growth medium and incubated for 48 hours in the absence or presence of CBZ or rapamycin (RAP). CBZ or RAP were added to the growth medium. The duration of incubation with CBZ was determined to be optimal at 48 hours based on experiments in which the duration was varied from 12 to 72 hours. Doses of CBZ were based on previous studies of its effects in cell lines (5,6). […]
(§2) For immunoblot analysis to detect AT, GAPDH or LC3, cells were lysed in 50 mM Tris-HCl, 150 mM NaCl, 1% NP-40, pH 8.0. Protein levels were quantified using the BCA protein assay (Pierce Biotechnology, Rockford, Ill.). […]

The test system of another experiment is human AT. As to the kind of experiment: Serum levels of human ATZ in PiZ mice by ELISA. Conditions: CBZ 250 mg/kg/day for 2 weeks. It counts as in vivo, mouse. How it is done:
For ELISA on mouse serum specimens, Nunc Maxisorp plates were first coated with goat anti-human AT (Bethyl), then blocked in PBS-Tween20 containing 5% nonfat milk. Serum samples were loaded into the wells in 1:20,000 dilution using purified human AT serial dilutions (1.56 to 100 ng/ml) as a standard. Rabbit-anti human AT (Dako) was used as […], and goat anti-rabbit IgG-HRP (Dako) a secondary antibody. Protein levels were detected with OPD (Sigma).

In experiment [2] the test system is BiP in the HTO/Z cell line. As to the kind of experiment: Steady state levels of BiP in the HTO/Z cell line (immunoblot). Conditions: FIG. 1D. The format is cell-based, human.
From the text: as §1, §2

Experiment [3] has as its system smooth muscle actin, collagen IA and TGFβ mRNA. Briefly: Stellate cell activation markers in liver of PiZ mice by Q-PCR. The format is in vivo, mouse. On the procedure:
Quantitative PCR (Q-PCR) Levels of mRNA from smooth muscle actin, collagen IA and TGFβ in liver of PiZ mice were determined by Q-PCR using primers from ABI and previous described conditions (19).

A further experiment deals with ATZ in the liver. As to the kind of experiment: Hepatic load of ATZ in vivo in PiZ×GFP-LC3 mice (immunoblot, globule histology). On the set-up: species or system mouse. From the text: Transgenic Mice PiZ mice that have been bred into the C57/BL6 background have been described previously (1). For the second and third series of experiments with CBZ we used PiZ mice that were re-derived onto the FVB/N background for a move into a new animal facility. The transgene that was used to generate the PiZ mouse is a genomic fragment of DNA that contains the coding regions of the ATZ gene together with introns and ˜2 kilobases of upstream and downstream flanking regions (10). […] In this perspective it is not an exact phenocopy of the classical form of AT deficiency. In particular it cannot be a model for the loss-of-function mechanisms associated with the classical form of AT deficiency. It is known to have abundant expression of ATZ in hepatocytes and other cell types that express ATZ in humans (11). In the liver there are abundant ATZ-containing intrahepatocytic globules and inflammation that is characteristic of what is seen in the human liver (11,12). […] Taken together, these observations indicate that the PiZ mouse is an appropriate model for the gain-of-toxic function mechanism that is responsible for liver damage in the classical form of AT deficiency. Indeed, the fact that these mice are endowed with endogenous AT function and therein normal levels of AT in the serum and body fluids make them an even more ‘pure’ model for liver damage by gain-of-toxic function. PiZ×GFP-LC3 mice, which generated green fluorescent autophagosomes, have been described previously (2). PiZ×IKKβ.hep were generated by mating of PiZ to IKKβ.hep, which has conditional hepatocyte-specific disruption of NF.B activation (M. Karin, 17). There is increased injury in the liver of these mice as evidenced by the hepatic hydroxyproline content, 153.3% of that in the PiZ mouse (FIG. 7).
Histology Sections of liver tissue were stained with hematoxylin and eosin, PAS, PAS after diastase treatment, TUNEL, PCNA, Ki67 and Sirius Red using standard techniques (18). Previous methods for staining with antibody to smooth muscle actin were used (19). Each was examined by the pathologist (GM) who was completely blinded to the experimental protocol. […] The number of inflammatory nodules, AT-containing globules and autophagosomes were each quantified blindly by counting cells in 6 microscopic fields of 10 different sections for each liver. The number of nuclei, as determined by Hoechst staining, was used to exclude the possibility that different numbers of cells were counted in liver sections from mice treated with CBZ as compared to controls. Hepatic hydroxyproline concentration was determined by a well-established protocol (20,21). […]
For immunoblot on liver, the liver was snap frozen in liquid nitrogen and stored at −80° C. […] Total protein concentration was measured by BCA assay (Pierce). […]

Where [4] appears, read: PiZ×GFP-LC3 mice, 250 mg kg-1 day-1 for 2 weeks by gavage.

On to `NC(=O)N1c2ccccc2C=Cc2ccccc21` [CBZ, 5H-dibenz [b,f]azepine-5-carboxamide], for which, in experiment [1], the “levels of AT Saar (soluble fraction)” value was “degraded by CBZ in a manner almost identical to that of ATZ”. In the experiment with human AT, the “serum concentrations of human AT” value is on record as “not significantly affected”. Further, the BiP levels entry in experiment [2] is listed as “did not affect”. In addition, in experiment [3] (not statistically significant), the “collagen 1A level” value is “decreased” and the “transforming growth factor b level” value was “decreased”. The “smooth muscle actin level” value in experiment [3] (reached statistical significance) is on record as “decreased”. Further, in the experiment with ATZ in the liver (setting [4]), the “intrahepatocytic ATZ-containing globules” value was “marked decrease”; the “total, insoluble, and soluble ATZ in the liver” value is “marked decrease”. For the same compound, the “decrease in globule-containing hepatocytes, factor” value in the experiment on ATZ in the liver (quantitative morphometry, 250 mg kg-1 day-1 for 2 weeks, P<0.001) was 3.36.
